Experiments:
human NaV1.6 [1] = target: T1, human NaV1.6 (Homo sapiens, UniProt Q9UQD0); assay: Peak INa voltage-dependent block (VDB), PatchXpress patch clamp; type: cell-based; details: for Ratio to Pers. INa (Peak INa VDB / persistent INa): hNaV1.6; for IC50: hNaV1.6, half-inactivated (V1/2)
T1 construct: stably expressing either human NaV1.6 (NP_055006); expressed in transfected cells
Protocol: (§1) HEK-293 cell lines stably expressing either human NaV1.6 (NP_055006), mouse NaV1.6 (NP_035453.2), or rat NaV1.6 (NP_062139) were used. All cells were seeded at 2×10^6 cells per Nunc T75 flask for 2 days in culture. At time of harvest for assays, the cell counts were approximately 6×10^6 cells. Cells were washed (1×) in DPBS (Hyclone, Cat #SH30028.03) for approximately 30 seconds. 1 mL of 1×0.05% Trypsin-EDTA (GIBCO Cat #25300-054) was added and swirled around to cover the bottom of the flask and was allowed to sit on the cells for approximately 4 minutes (±90% of the cells were lifted by light tapping of the flask). 10 mL of warmed media (DMEM high glucose media Hyclone, SH30022.02 supplemented with 10% Fetal Bovine Serum, 2 mM Sodium Pyruvate, 10 mM HEPES and 400 μg/mL G418) was added to inactivate the trypsin. Cells were triturated until a single cell suspension was achieved. A cell count was performed and cells were aliquoted into a 250 ml centrifuge tube at a concentration of 2×10^5/mL in +30 ml of prewarmed media. The 250 mL centrifuge tube was placed on a rocker in an incubator set at 28° C. and gently rocked for approximately 1 hour to allow cells to recover. Cell aliquots of 5 mL (1×10^6 cells) were placed in a 15 mL centrifuge tube and spun at 100×g for 2 minutes. Supernatant was removed leaving a cell pellet. 100 μL of external recording solution was added to the pellet and triturated 20 times to achieve a single cell suspension and then transferred to a 1.5 mL tube for placement in the PatchXpress® (Molecular Devices).
(§2) Compound 1 was provided as powder and prepared as 10 mM DMSO stocks in 1 dram glass vials prior to assay. Immediately prior to assay, Compound 1 was diluted with DMSO to 300×, the designated final assay concentration. Assay dilutions (1× concentration) were prepared by pipetting 3 μL of diluted Compound 1 into 897 μL of extracellular solution in a 1 mL glass shell vial. Vials were capped and vortexed until initiation of the PatchXpress® (Molecular Devices) recording protocol.
(§3) The same intracellular recording solution was used for the persistent and peak INa assays, which contained: 135 mM CsF, 10 mM CsCl, 5 mM NaCl, 10 mM HEPES, 5 mM EGTA at a pH of 7.4 (adjusted with CsOH) and a measured osmolarity of 298 mOsm (adjusted with mannitol). For the persistent INa assay, the external recording solution contained: 135 mM NaCl, 5.4 mM KCl, 5 mM glucose, 2 mM CaCl2), 1 mM MgCl2, 10 mM HEPES, and 200 nM ATX-II (sea anemone toxin, Alomone Labs; Jerusalem, Israel) at a pH of 7.4 (adjusted with NaOH) and a measured osmolarity of 300 mOsm (adjusted with mannitol). For the peak INa assays, the external recording solution contained: 100 mM NaCl, 35 mM NMDG, 5.4 mM KCl, 5 mM glucose, 2 mM CaCl2), 1 mM MgCl2, and 10 mM HEPES at a pH of 7.4 (adjusted with NaOH) and a measured osmolarity of 300 mOsm (adjusted with mannitol).
(§4) All studies were performed using the PatchXpress® (Molecular Devices) automated patch clamp platform (Molecular Devices) using the whole cell configuration. Recordings were performed at room temperature. Data were collected using Patch Commander software (Molecular Devices) and processed using DataXpress 2.0 (Molecular Devices). Cell acceptance criteria were continuously monitored by custom scripts during the recording. Acceptance criteria for all assays were: baseline peak INa>800 pA, Rseal>200 MΩ, and, where appropriate, persistent INa>100 pA. Compensation was 50% and leak subtraction was not used. Currents were filtered at 5 kHz and digitized at 32.5 kHz. Raccess and Rseal were monitored throughout the recording and cells with Raccess>10 MΩ or Rseal<200 MΩ were terminated automatically by script.
Voltage Dependent Block (VDB): VDB protocols used a depolarized voltage to keep channels in half-inactivated (resting) states. This allowed equilibrium binding and accurate determination of isoform selectivity (in the absence of biological features).

human NaV1.6 [2] = target: T1, human NaV1.6; assay: ATX-II activated late (persistent) INa block, PatchXpress patch clamp; type: cell-based; details: for IC50: hNaV1.6, ATX-II-evoked, holding −120 mV
Protocol: as §1, §2, §3, §4
Late (persistent) current Block: The inhibition of ATX-II activated late current was measured using a 200 ms voltage step to 0 mV. Protocols used low stimulation rates (about 0.1 Hz) and negative potentials (−120 mV) to keep channels in closed (resting) states.

human NaV1.6 [3] = target: T1, human NaV1.6; assay: Peak INa use-dependent block (UDB-10 Hz), PatchXpress patch clamp; type: cell-based
human NaV1.6 [4] = target: T1, human NaV1.6; assay: Peak INa tonic block (TB), PatchXpress patch clamp; type: cell-based; details: for IC50: hNaV1.6, 0.1 Hz, resting state
Protocol: as §1, §2, §3, §4
Tonic Block (TB): Tonic Block (TB) protocols used low stimulation rates (about 0.1 Hz) and negative potentials (−120 mV) to keep channels in closed (resting) states. Pharmacology was measured during peak INa in response to step to 0 mV. No leak subtraction was used.

male CD-1 mice [5] = assay: Maximal electroshock induced seizure (MES) test; type: in vivo, mouse; details: for protection (increase in latency) against MES-induced tonic hindlimb seizures, dose-response: Compound 1 0.3-10 mg/kg po; for ED50: mouse MES, read-out: Efficacy (MES) ED50, increasing latency to tonic extension seizures
Protocol: Food and water were available ad libitum.
VPA was prepared in saline (Vehicle 1). All solutions were protected from light. All compounds and vehicles were dosed at 10 ml/kg.
The MES test was carried out over two days with 6 of 12 mice from each treatment group being tested on each day. Mice were brought to the test room at least one hour before the start of the experiment.
A Grass S88x (Grass Technologies of Astro-Med, Inc., West Warwick, RI) Stimulus Isolation Unit (A385, WPI Inc., USA) was set to deliver a 50 mA square-wave stimulus, with a 0.8 second duration, a pulse width of 10 msec, and a frequency of 50 Hz. A pair of custom stainless steel electrodes were soaked in 0.2% Agar, and then the subject received bilateral transauricular stimulation through ear-clip electrodes. During the stimulation, mice were manually restrained. They were then released into the observation cage for convulsion observation for 60 seconds immediately after stimulation. Each mouse was observed continuously by individuals blinded to treatment conditions and results were recorded.
Anti-seizure assessment endpoints were: (1) latency of hindlimb tonic flexion; (2) latency of hindlimb tonic extension; (3) total #hindlimb tonic flexions; (4) total #hindlimb tonic extensions; (5) latency to death; and (6) mortality rate
From these fitted curves, ED50 and EC50 values were calculated.

male CD-1 mice [6] = assay: Spontaneous locomotor activity (sLMA) test; details: for sLMA distance moved, dose-response: Compound 1 10-40 mg/kg po; for Tolerability (sLMA) TD50: dose reducing sLMA by 50%
Protocol: Male CD-1 mice, 6-weeks old, were obtained from Vital River (Beijing, China). The average body weight was 25-35 g at the time the experiments were carried out. The mice were housed in groups of 3-5 under controlled conditions (temperature: 20-26° C.; humidity: 40-70%; air exchange rate: 10-15 cycles/hour; 12:12 light-dark cycle with lights on at 5:00 a.m.). Food and water were available ad libitum. The mice were acclimated to these conditions for 6 days before the start of the studies.
Dosing solutions were prepared on each experiment day. […] All solutions were protected from light. Samples from dosing solutions were stored at 4° C. Both compound and vehicle were dosed at 10 ml/kg.
The sLMA test was carried out over two days. 5 of 10 mice from each treatment group were tested on each day. All animals were marked on the tail with a permanent marker and weighed. Mice were randomly assigned into one of the four treatment groups. Animals were acclimated to the test room at least 30 minutes before the start of the experiment.
Possible side effects, such as overt sedation, were recorded just before the start of the sLMA test.
Each mouse was automatically tracked with overhead cameras using a 1-minute sampling window in an isolated chamber. Spontaneous locomotor activity was then analyzed offline using the Animal Behavior Video Tracking Analysis System (Ji Liang Software Technology Co., Ltd., Shanghai, China).
Locomotor status was defined as >2 mm of movement in every 200 ms (Frame-rate recorded was 20 frames/second. Locomotor status was identified in every 4 frame-to-frame interval. The accumulated shift of tracking spots that exceeded 2 mm in every 4 frame intervals was identified as a locomotor epoch). Traveling distance was calculated automatically from all the locomotion epochs and analyzed.
All mice were anesthetized with CO2. Then, terminal plasma and brain tissue samples were collected from animals in the drug treatment groups. 500 μL whole blood was collected via cardiac puncture and placed in tubes with 10 μL EDTAK2. The tubes were then placed in wet ice until centrifuged at 2000 g for 5 minutes at 4° C. The supernatant plasma was pipetted into Eppendorf tubes.
All statistical analyses were conducted using GraphPad Prism 7.0. Data are presented as mean±s.e.m., and p<0.05 was regarded as statistically significant.
Dose-response and concentration-response curves for plasma and brain were fitted for each end-point using GraphPad Prism. From these fitted curves, TD50 and TC50 values were calculated.

[7] = in vivo
Text: (§5) This was a 2-part randomized, placebo-controlled Phase 1 trial in healthy participants aged 18-55 years. […] PD effects were examined on quantitative EEG (qEEG; resting and vigilant conditions) and stimulated EEG using auditory steady state response (ASSR). A total of 48 participants were enrolled; Part A, n=30; Part B, n=18.

healthy participants = assay: 2-part Phase 1 trial (28 days; OXC combination): safety and tolerability; type: in vivo, human; details: Part B, per arm
Text: as §5

T1 sequence (Q9UQD0 whole entry): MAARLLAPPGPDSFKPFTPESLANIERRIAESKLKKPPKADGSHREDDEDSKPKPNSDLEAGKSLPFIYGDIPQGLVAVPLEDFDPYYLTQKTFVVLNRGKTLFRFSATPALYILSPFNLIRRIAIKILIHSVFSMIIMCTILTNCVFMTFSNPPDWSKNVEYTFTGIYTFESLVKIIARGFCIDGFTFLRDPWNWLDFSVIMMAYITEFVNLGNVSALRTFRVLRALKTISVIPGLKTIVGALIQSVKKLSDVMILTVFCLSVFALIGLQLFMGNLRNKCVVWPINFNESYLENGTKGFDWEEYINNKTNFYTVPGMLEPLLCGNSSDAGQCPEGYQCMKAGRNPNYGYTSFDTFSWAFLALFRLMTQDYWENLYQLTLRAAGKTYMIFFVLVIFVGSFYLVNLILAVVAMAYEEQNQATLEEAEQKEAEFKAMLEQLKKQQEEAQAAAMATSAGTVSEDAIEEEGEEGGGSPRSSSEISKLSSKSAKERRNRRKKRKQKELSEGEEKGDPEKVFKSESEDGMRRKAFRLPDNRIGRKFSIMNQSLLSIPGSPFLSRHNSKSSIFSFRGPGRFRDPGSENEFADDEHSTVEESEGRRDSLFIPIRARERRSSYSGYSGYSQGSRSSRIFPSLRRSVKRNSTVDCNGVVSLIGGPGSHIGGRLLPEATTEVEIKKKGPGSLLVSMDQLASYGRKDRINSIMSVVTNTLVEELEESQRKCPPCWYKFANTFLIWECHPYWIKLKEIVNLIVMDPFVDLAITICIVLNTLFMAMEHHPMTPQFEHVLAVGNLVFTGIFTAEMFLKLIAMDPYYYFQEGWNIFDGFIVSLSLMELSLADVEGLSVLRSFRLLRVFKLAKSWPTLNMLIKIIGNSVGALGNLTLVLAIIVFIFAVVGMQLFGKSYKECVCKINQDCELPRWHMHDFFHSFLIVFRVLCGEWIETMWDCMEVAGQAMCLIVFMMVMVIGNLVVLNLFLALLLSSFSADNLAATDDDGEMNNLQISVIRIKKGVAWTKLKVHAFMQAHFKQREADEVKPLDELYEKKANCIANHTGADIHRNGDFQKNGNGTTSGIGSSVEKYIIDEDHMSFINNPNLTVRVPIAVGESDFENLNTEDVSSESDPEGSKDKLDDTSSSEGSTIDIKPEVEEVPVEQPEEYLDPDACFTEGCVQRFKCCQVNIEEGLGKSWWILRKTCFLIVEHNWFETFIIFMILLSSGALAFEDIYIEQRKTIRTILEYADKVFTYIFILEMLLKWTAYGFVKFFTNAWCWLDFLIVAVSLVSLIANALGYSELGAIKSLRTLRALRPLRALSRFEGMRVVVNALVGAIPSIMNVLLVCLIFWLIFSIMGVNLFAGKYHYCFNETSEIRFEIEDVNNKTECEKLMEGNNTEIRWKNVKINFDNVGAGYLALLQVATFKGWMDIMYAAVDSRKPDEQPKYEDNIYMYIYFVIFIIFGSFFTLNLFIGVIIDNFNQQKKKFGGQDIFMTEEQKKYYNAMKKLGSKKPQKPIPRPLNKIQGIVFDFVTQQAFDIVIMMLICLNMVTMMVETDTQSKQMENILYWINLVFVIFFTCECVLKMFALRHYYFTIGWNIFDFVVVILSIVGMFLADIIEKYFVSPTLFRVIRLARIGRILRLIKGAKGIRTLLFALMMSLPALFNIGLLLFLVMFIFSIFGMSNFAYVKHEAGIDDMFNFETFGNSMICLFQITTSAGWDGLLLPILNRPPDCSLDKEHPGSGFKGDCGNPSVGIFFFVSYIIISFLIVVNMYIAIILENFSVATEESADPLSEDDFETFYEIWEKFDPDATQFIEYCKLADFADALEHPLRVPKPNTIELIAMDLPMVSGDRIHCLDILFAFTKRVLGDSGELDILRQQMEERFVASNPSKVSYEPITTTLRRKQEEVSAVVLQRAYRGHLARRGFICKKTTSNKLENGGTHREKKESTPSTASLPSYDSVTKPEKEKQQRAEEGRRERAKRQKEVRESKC

COC[C@@H](NC(C)=O)C(=O)NCc1ccccc1 [Lacosamide]
Ratio to Pers. INa (Peak INa VDB / persistent INa) (human NaV1.6 [1]): 0.3
IC50 (human NaV1.6 [1]): 269 µM
IC50 (human NaV1.6 [2]): 833 µM
Ratio to Pers. INa (Peak INa UDB-10 Hz / persistent INa) (human NaV1.6 [3]; hNaV1.6): 0.8
IC50 (human NaV1.6 [3]; hNaV1.6, 10 Hz): 682 µM

NC(=O)N1c2ccccc2C=Cc2ccccc21 [Carbamazepine, reference compound]
IC50 (human NaV1.6 [4]): 2.31 mM
IC50 (human NaV1.6 [1]): 44.4 µM
IC50 (human NaV1.6 [2]): 77.5 µM
mice protected against MES-induced tonic hindlimb seizures (male CD-1 mice [5]; CBZ 30 mg/kg): all mice
protection (increase in latency) against MES-induced tonic hindlimb seizures, dose-response (male CD-1 mice [5]): dose-dependent protection
ED50 (male CD-1 mice [5]): 5 mg/kg
sLMA at the dose required for complete seizure prevention (male CD-1 mice [6]; CBZ): significant reduction
sLMA distance moved, dose-response (male CD-1 mice [6]): dose-dependent reductions
PI (Brain) (male CD-1 mice [6]; brain TC50 (sLMA) / brain EC50 (MES), free concentrations): 5.9
Tolerability (sLMA) TD50 (male CD-1 mice [6]): 37.6 mg/kg
PI (Plasma) (male CD-1 mice [6]; plasma TC50 (sLMA) / plasma EC50 (MES), free concentrations): 3.4
IC50 (human NaV1.6 [3]; hNaV1.6, 10 Hz): 1420 µM
use-dependent block at stimulation frequency of 10 Hz (human NaV1.6 [3]; hNaV1.6, 10 Hz): not observed
use-dependent block at increased frequencies (human NaV1.6 [3]; hNaV1.6, 10 Hz, 30 Hz or 50 Hz): could be observed

Nc1nnc(-c2cccc(Cl)c2Cl)c(N)n1 [Lamotrigine, reference compound]
protection (increase in latency) against MES-induced tonic hindlimb seizures, dose-response (male CD-1 mice [5]): dose-dependent protection
mice protected against MES-induced tonic hindlimb seizures (male CD-1 mice [5]; LTG 10 mg/kg, highest dose tested): eight of 12
ED50 (male CD-1 mice [5]): 3.4 mg/kg
sLMA distance moved, dose-response (male CD-1 mice [6]): dose-dependent reductions
Tolerability (sLMA) TD50 (male CD-1 mice [6]): 26.5 mg/kg

NC(=O)O[C@@H](Cn1ncnn1)c1ccccc1Cl [Cenobamate]
Ratio to Pers. INa (Peak INa TB / persistent INa) (human NaV1.6 [4]; hNaV1.6): 24
IC50 (human NaV1.6 [4]): 1.72 mM
Ratio to Pers. INa (Peak INa VDB / persistent INa) (human NaV1.6 [1]): 0.9
IC50 (human NaV1.6 [1]): 66.7 µM
IC50 (human NaV1.6 [2]): 71.7 µM
Ratio to Peak INa (TB) (UDB-10 Hz) (human NaV1.6 [3]; hNaV1.6): 2.3
Ratio to Pers. INa (Peak INa UDB-10 Hz / persistent INa) (human NaV1.6 [3]; hNaV1.6): 11
IC50 (human NaV1.6 [3]; hNaV1.6, 10 Hz): 749 µM

CCCC(CCC)C(=O)O [Valproic acid]
inhibition at 1000 µM (human NaV1.6 [4]; hNaV1.6, 1 mM): 11%
inhibition at 1000 µM (human NaV1.6 [2]; hNaV1.6, 1 mM): 2%
inhibition at 1000 µM (human NaV1.6 [3]; hNaV1.6, 1 mM): 8%

O=C1NC(=O)C(c2ccccc2)(c2ccccc2)N1 [Phenytoin]
Ratio to Pers. INa (Peak INa VDB / persistent INa) (human NaV1.6 [1]): 0.8
IC50 (human NaV1.6 [1]): 47.8 µM
IC50 (human NaV1.6 [2]): 59.8 µM
Ratio to Pers. INa (Peak INa UDB-10 Hz / persistent INa) (human NaV1.6 [3]; hNaV1.6): 15
IC50 (human NaV1.6 [3]; hNaV1.6, 10 Hz): 877 µM

NC(=O)N1c2ccccc2CC(=O)c2ccccc21 [Oxcarbazepine]
Ratio to Pers. INa (Peak INa TB / persistent INa) (human NaV1.6 [4]; hNaV1.6): 8
IC50 (human NaV1.6 [4]): 1.03 mM
exposure when administered concomitantly with Compound 1 vs alone [7]: appeared to be similar
Ratio to Pers. INa (Peak INa VDB / persistent INa) (human NaV1.6 [1]): 0.3
IC50 (human NaV1.6 [1]): 42 µM
IC50 (human NaV1.6 [2]): 124 µM
patients in whom TEAEs were observed (number) (healthy participants): 3
patients in whom TEAEs were observed (percent) (healthy participants): 75%

NC(=O)N1c2ccccc2CC(O)c2ccccc21 (stereo not shown) [10-Hydroxycarbamezapine]
exposure when administered concomitantly with Compound 1 vs alone [7]: appeared to be similar

Source: patent publication US12582652B2, “3-(ethoxydifluoromethyl)-6-(5-fluoro-6-(2,2,2-trifluoroethoxy)pyridin-3-yl)-[1,2,4]triazolo[4,3-a]pyrazine as an ion channel modulator” (Praxis Precision Medicines, Inc., priority 2022, dated 2026)
